Measured values reported in ChEMBL document CHEMBL4619709, “Synthesis and in-vitro anti-cancer evaluations of multi-methoxylated asymmetrical diarylpentanoids as intrinsic apoptosis inducer against colorectal cancer” (Bioorg Med Chem Lett, 2020).
The source made the active and inactive calls. The rule behind the calls is not given here.

How the values were obtained:
RKO [1] = experiment: Induction of apoptosis in human RKO cells assessed as reduction in procaspase-7 expression after 24 to 72 hrs by Western blot analysis; type: functional, cell-based
SW-620 [2] = experiment: Antiproliferative activity against human SW620 cells at 10 uM after 72 hrs by MTT assay; type: functional, cell-based
RKO [3] = experiment: Induction of cell cycle arrest in human RKO cells assessed as accumulation at G0/G1 phase at 0.625 uM after 24 hrs by PI-staining based flow cytometry (reference value: 52%); type: functional
RKO [4] = experiment: Inhibition of colony formation in human RKO cells after 9 days by crystal violet staining based assay; type: functional, cell-based
T84 [5] = experiment: Antiproliferative activity against human T84 cells at 10 uM after 72 hrs by MTT assay; type: functional, cell-based
RKO [6] = experiment: Induction of cell cycle arrest in human RKO cells assessed as accumulation at G2/M phase at 1.25 uM after 24 hrs by PI-staining based flow cytometry (reference value: 20%); type: functional
RKO [7] = experiment: Induction of apoptosis in human RKO cells assessed as increase in bad protein expression after 24 to 72 hrs by Western blot analysis; type: functional, cell-based
[8] = Therapeutic index, ratio of IC50 for human NHDF cells to IC50 for human HT-29 cells after 72 hrs; type: toxicity; conditions: NHDF cells versus HT-29 cells, read-out: Ratio IC50
RKO [9] = experiment: Antiproliferative activity against human RKO cells assessed as reduction in cell viability after 72 hrs by MTT assay; type: functional, cell-based
RKO [10] = experiment: Induction of apoptosis in human RKO cells assessed as reduction in procaspase-3 expression after 24 to 72 hrs by Western blot analysis; type: functional, cell-based
HT-29 [11] = experiment: Antiproliferative activity against human HT-29 cells at 10 uM after 72 hrs by MTT assay; type: functional, cell-based
RKO [12] = experiment: Induction of cell cycle arrest in human RKO cells assessed as accumulation at G2/M phase at 0.625 uM after 24 hrs by PI-staining based flow cytometry (reference value: 20%); type: functional
RKO [13] = experiment: Induction of apoptosis in human RKO cells assessed as reduction in bcl-2 expression after 24 hrs by Western blot analysis; type: functional, cell-based
RKO [14] = experiment: Induction of cell cycle arrest in human RKO cells assessed as accumulation at G0/G1 phase at 1.25 uM after 24 hrs by PI-staining based flow cytometry (reference value: 52%); type: functional
RKO [15] = experiment: Inhibition of colony formation in human RKO cells at 0.625 uM treated for 9 days by crystal violet staining based assay; type: functional, cell-based
[16] = Therapeutic index, ratio of IC50 for human NHDF cells to IC50 for human LoVo cells after 72 hrs; type: toxicity; conditions: NHDF cells versus LoVo cells, read-out: Ratio IC50
LoVo [17] = experiment: Antiproliferative activity against human LoVo cells at 10 uM after 72 hrs by MTT assay; type: functional, cell-based
NCI-H508 [18] = experiment: Antiproliferative activity against human NCI-H508 cells at 10 uM after 72 hrs by MTT assay; type: functional, cell-based
[19] = Therapeutic index, ratio of IC50 for human NHDF cells to IC50 for human SW620 cells after 72 hrs; type: toxicity; conditions: NHDF cells versus SW620 cells, read-out: Ratio IC50
RKO [20] = experiment: Inhibition of colony formation in human RKO cells at 1.25 to 5 uM after 9 days by crystal violet staining based assay; type: functional, cell-based
RKO [21] = experiment: Induction of apoptosis in human RKO cells assessed as reduction in procaspase-9 expression after 24 to 72 hrs by Western blot analysis; type: functional, cell-based
RKO [22] = experiment: Induction of apoptosis in human RKO cells at 0.625 to 5 uM after by Annexin V-FITC/PI staining based flow cytometry; type: functional, cell-based; conditions: TDE = time-dependent effect
LoVo [23] = experiment: Antiproliferative activity against human LoVo cells assessed as reduction in cell viability after 72 hrs by MTT assay; type: functional, cell-based
RKO [24] = experiment: Induction of apoptosis in human RKO cells assessed as reduction in bcl-xl expression after 24 hrs by Western blot analysis; type: functional, cell-based
RKO [25] = experiment: Induction of cell cycle arrest in human RKO cells assessed as accumulation at G2/M phase at 2.5 uM after 24 hrs by PI-staining based flow cytometry (reference value: 20%); type: functional
[26] = Therapeutic index, ratio of IC50 for human NHDF cells to IC50 for human T84 cells after 72 hrs; type: toxicity; conditions: NHDF cells versus T84 cells, read-out: Ratio IC50
RKO [27] = experiment: Antiproliferative activity against human RKO cells at 10 uM after 72 hrs by MTT assay; type: functional, cell-based
RKO [28] = experiment: Induction of apoptosis in human RKO cells assessed as increase in bax protein expression after 24 to 72 hrs by Western blot analysis; type: functional, cell-based
RKO [29] = experiment: Induction of ROS generation in human RKO cells by fluorescence based assay; type: functional, cell-based
NHDF = experiment: Cytotoxicity against human NHDF cells assessed as reduction in cell viability; type: cell-based
RKO [30] = experiment: Induction of apoptosis in human RKO cells assessed as increase in caspase-9 expression after 24 to 72 hrs by Western blot analysis; type: functional, cell-based
RKO [31] = experiment: Induction of cell cycle arrest in human RKO cells assessed as accumulation at S phase at 0.625 uM after 24 hrs by PI-staining based flow cytometry (reference value: 28%); type: functional
SW-620 [32] = experiment: Antiproliferative activity against human SW620 cells assessed as reduction in cell viability after 72 hrs by MTT assay; type: functional, cell-based; conditions: SW-620, 72 h
RKO [33] = experiment: Induction of cell cycle arrest in human RKO cells assessed as accumulation at S phase at 2.5 uM after 24 hrs by PI-staining based flow cytometry (reference value: 28%); type: functional
HT-29 [34] = experiment: Antiproliferative activity against human HT-29 cells assessed as reduction in cell viability after 72 hrs by MTT assay; type: functional, cell-based; conditions: HT-29, 72 h
RKO [35] = experiment: Induction of apoptosis in human RKO cells assessed as reduction in bcl-xl expression after 72 hrs by Western blot analysis; type: functional, cell-based
NCI-H508 [36] = experiment: Antiproliferative activity against human NCI-H508 cells assessed as reduction in cell viability after 72 hrs by MTT assay; type: functional, cell-based; conditions: NCI-H508, 72 h
[37] = Therapeutic index, ratio of IC50 for human NHDF cells to IC50 for human RKO cells after 72 hrs; type: toxicity; conditions: NHDF cells versus RKO cells, read-out: Ratio IC50
T84 [38] = experiment: Antiproliferative activity against human T84 cells assessed as reduction in cell viability after 72 hrs by MTT assay; type: functional, cell-based; conditions: T84, 72 h
[39] = Therapeutic index, ratio of IC50 for human NHDF cells to IC50 for human NCI-H508 cells after 72 hrs; type: toxicity; conditions: NHDF cells versus NCI-H508 cells, read-out: Ratio IC50
RKO [40] = experiment: Induction of apoptosis in human RKO cells after 24 to 72 hrs by Annexin V-FITC/PI staining based flow cytometry; type: functional, cell-based
RKO [41] = experiment: Induction of cell cycle arrest in human RKO cells assessed as accumulation at G0/G1 phase at 2.5 uM after 24 hrs by PI-staining based flow cytometry (reference value: 52%); type: functional
RKO [42] = experiment: Induction of cell cycle arrest in human RKO cells assessed as accumulation at S phase at 1.25 uM after 24 hrs by PI-staining based flow cytometry (reference value: 28%); type: functional

IC50 (LoVo [23]): 1.1 µM
IC50 (SW-620 [32]): 0.8 µM
IC50 (HT-29 [34]): 3.4 µM
IC50 (NCI-H508 [36]): 4 µM
SMILES: COc1cc(/C=C2\CCC/C(=C\c3ccc(O)c(Cl)c3)C2=O)cc(OC)c1OC
Activity (RKO [1]): Active
Activity (SW-620 [2]): Active
Activity (RKO [3]): 52%
inhibition (RKO [4]): Dose-dependent effect
Activity (T84 [5]): Active
Activity (RKO [6]): 28%
Activity (RKO [7]): Active
selectivity ratio at 72 h [8]: 1.8 to 9.9
IC50 (RKO [9]): 0.7 µM
Activity (RKO [10]): Active
Activity (HT-29 [11]): Active
Activity (RKO [12]): 21%
Activity (RKO [13]): Active
Activity (RKO [14]): 52%
inhibition (RKO [15]): inactive
selectivity ratio at 72 h [16]: 1.8 to 9.9
Activity (LoVo [17]): Active
Activity (NCI-H508 [18]): Active
selectivity ratio at 72 h [19]: 1.8 to 9.9
inhibition (RKO [20]): Active
Activity (RKO [21]): Active
Activity (RKO [22]): Tde
Activity (RKO [24]): Active
Activity (RKO [25]): 50%
selectivity ratio at 72 h [26]: 1.8 to 9.9
Activity (RKO [27]): Active
Activity (RKO [28]): Active
Activity (RKO [29]): Dose-dependent effect
IC50 (NHDF): 6.9 µM
Activity (RKO [30]): Active
Activity (RKO [31]): 27%
Activity (RKO [33]): 23%
Activity (RKO [35]): inactive
selectivity ratio at 72 h [37]: 1.8 to 9.9
IC50 (T84 [38]): 1.8 µM
selectivity ratio at 72 h [39]: 1.8 to 9.9
Activity (RKO [40]): Dose-dependent effect
Activity (RKO [41]): 27%
Activity (RKO [42]): 20%
